Patent US11135193B2, “Composition containing monoacetyldiacylglycerol compound as active ingredient for preventing or treating asthma” (Enzychem Lifesciences Corporation, priority 2013, dated 2021)
Where two headings read alike, the source gives them in different places.

Test system: EL-4 cells
Conditions: mouse, 24 h
Experimental: EL-4 cells that are mouse T lymphoma cells were suspended in 10% fetal bovine serum-containing RPMI medium (Gibco) at a concentration of 5×10^4 cells/ml, and 100 μl of the cell suspension was seeded into each well of a 96-well plate and cultured for 12 hours. Next, the cell culture was treated with monoacetyldiacylglycerol (MADG) compounds at the concentrations shown in Table 1 below, and was then additionally cultured for 24 hours. Next, according to the instruction provided in a CCK-8 kit (Dojindo) capable of counting cells, 10 μl of CCK-8 solution was added to the kit and allowed to react for 30 minutes to 4 hours, and then the absorbance (OD) at 570 nm was measured. In equation 1, the negative control group indicates a cell culture treated with 0.2% DMSO. […] Cell viability (%)=[(OD 570 nm value of MADC-treated group)/(OD 570 nm value of negative control group)]×100 Equation 1

SMILES | EL-4 cell viability (%, mean ± SD) (5 μg/ml) [%] | EL-4 cell viability (%, mean ± SD) (10 μg/ml) | EL-4 cell viability (%, mean ± SD) (20 μg/ml) [%]
CCCCCCCC/C=C\CCCCCCCC(=O)OCC(COC(C)=O)OC(=O)CCCCCCCCCCCCCCC (stereo not drawn) [OPAG, 1-oleoyl-2-palmitoyl-3-acetylglycerol] | 98.04 ± 0.94 | 98.91 ± 1.68% | 99.56 ± 2.86
CCCCCCCC/C=C\CCCCCCCC(=O)OCC(COC(C)=O)OC(=O)CCCCCCCCCCCCCCCCC (stereo not drawn) [OSAG, 1-oleoyl-2-stearoyl-3-acetylglycerol] | 102.62 ± 2.18 | 100.98 ± 2.37% | 100.22 ± 0.68
CCCCCCCC/C=C\CCCCCCCC(=O)OC(COC(C)=O)COC(=O)CCCCCCCCCCCCCCC (stereo not drawn) [POAG, 1-palmitoyl-2-oleoyl-3-acetylglycerol] | 106.94 ± 2.69 | 106:39 ±1.19% | 98.90 ± 1.16
CCCCCCCCCCCCCCCC(=O)OCC(COC(C)=O)OC(=O)CCCCCCCCCCCCCCC (stereo not drawn) [PPAG, 1-palmitoyl-2-palmitoyl-3-acetylglycerol] | 106.28 ± 1.39 | 105.84 ± 1.38% | 96.59 ± 0.69
CCCCCCCCCCCCCCCCCC(=O)OC(COC(C)=O)COC(=O)CCCCCCCCCCCCCCC (stereo not drawn) [PSAG, 1-palmitoyl-2-stearoyl-3-acetylglycerol] | 98.46 ± 0.33 | 100.66 ± 1.25% | 103.30 ± 2.15
